Measured values published in patent US20230364118A1, “RIBITOL TREATMENT” (priority 2020, published 2023).
Read-outs that look alike come from different tables or passages of the source.

Legend:
[1] = 28-day repeat-dose oral toxicokinetics; type: in vivo, CD-1 mouse; details: for Tmax / Cmax / AUC(0-t): CD-1, mouse, plasma; for AUC(0-t): read-out: AUC0-24
Protocol: Toxicokinetics of ribitol was evaluated as part of the 28-day toxicology study in male and female CD-1 mice. […] Toxicokinetic animals were 12/sex in the control group and 48/sex/group in the treated groups. Blood samples were collected on Day 1 and Day 28 at pre-first dose, 0.5, 2, 4, 8 (prior to second dose), 8.5, 10, and 24 h.

[2] = Plasma protein binding, rapid equilibrium dialysis; type: in vitro ADME
Protocol: Protein binding studies with ribitol were performed in vitro using plasma from CD-1 mouse, Sprague-Dawley rat, Gottingen minipig, and human at 75 μg/mL (0.49 mM) and 200 μg/mL (1.31 mM) using the rapid equilibrium dialysis method. The percent of ribitol bound to plasma was approximately similar between the two concentrations tested in all species.

hERG = hERG (Homo sapiens, UniProt Q12809); test: in vitro
Chain of hERG (Q12809 whole entry): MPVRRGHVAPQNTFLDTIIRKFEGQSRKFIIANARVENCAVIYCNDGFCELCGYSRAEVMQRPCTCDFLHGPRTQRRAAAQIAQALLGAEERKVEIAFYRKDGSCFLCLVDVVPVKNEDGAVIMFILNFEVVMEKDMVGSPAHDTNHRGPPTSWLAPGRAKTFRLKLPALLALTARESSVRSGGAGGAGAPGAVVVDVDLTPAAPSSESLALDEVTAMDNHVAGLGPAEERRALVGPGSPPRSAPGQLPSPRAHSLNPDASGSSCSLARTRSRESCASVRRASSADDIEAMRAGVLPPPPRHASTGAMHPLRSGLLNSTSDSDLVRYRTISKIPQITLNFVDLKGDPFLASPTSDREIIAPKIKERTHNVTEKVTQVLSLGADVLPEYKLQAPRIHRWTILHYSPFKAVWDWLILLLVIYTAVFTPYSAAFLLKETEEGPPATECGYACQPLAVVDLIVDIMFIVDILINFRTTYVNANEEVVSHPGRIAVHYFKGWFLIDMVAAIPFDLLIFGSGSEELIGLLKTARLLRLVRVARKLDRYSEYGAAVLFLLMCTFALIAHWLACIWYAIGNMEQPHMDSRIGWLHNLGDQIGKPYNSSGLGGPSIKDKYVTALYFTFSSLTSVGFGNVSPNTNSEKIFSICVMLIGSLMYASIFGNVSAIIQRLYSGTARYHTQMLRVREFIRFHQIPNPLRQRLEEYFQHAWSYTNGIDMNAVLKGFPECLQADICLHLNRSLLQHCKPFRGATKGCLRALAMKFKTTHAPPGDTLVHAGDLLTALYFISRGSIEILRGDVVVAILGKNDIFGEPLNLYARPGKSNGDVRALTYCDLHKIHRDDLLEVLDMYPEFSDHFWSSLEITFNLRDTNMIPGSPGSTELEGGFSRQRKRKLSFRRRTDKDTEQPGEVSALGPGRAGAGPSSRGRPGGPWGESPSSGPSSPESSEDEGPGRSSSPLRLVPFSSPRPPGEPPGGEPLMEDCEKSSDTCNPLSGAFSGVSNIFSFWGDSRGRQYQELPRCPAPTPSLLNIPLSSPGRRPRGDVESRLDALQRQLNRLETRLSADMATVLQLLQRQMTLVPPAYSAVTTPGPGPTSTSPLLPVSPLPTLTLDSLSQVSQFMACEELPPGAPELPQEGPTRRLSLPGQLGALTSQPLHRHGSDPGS
Protocol: Therefore, the concentrations chosen for the definitive hERG assay were 0.1, 0.3, 1, and 3 mM, the detected concentrations of postperfusion solution were 0.101, 0.293, 0.999, and 2.90 mM, respectively.

[3] = Chronic (6 months) administration in mice; type: in vivo, mouse
Protocol: This response subsided at 48 hours after termination of treatment. No other adverse findings have been identified thus far with ribitol.

[4] = Single intravenous dose PK; type: in vivo, Bama minipig; details: for CLs: Bama minipigs
Protocol: The PK of ribitol was studied in 2 male and 2 female Bama minipigs following escalating IV doses levels using the same animals with a 48 hour washout period at 10 mg/kg (Day 1), 30 mg/kg (Day 3) and 100 mg/kg (Day 5). On each dosing day, blood samples were collected serially up to 24 hours post dose.

[5] = 7-day repeat-dose oral toxicokinetics; type: in vivo, CD-1 mouse; details: for Cmax / Tmax / AUC(0-t): CD-1, mouse, plasma, po; for AUC(0-t): read-out: AUC0-24
Protocol: Toxicokinetics were evaluated as part of a 7-day oral repeat-dose dose range finding study in CD-1 mice. […] On Days 1 and 7, blood was collected for plasma toxicokinetics (TK) from the treatment groups at 0 (pre-first dose), 0.5, 2, 4, 6 (pre-second dose), 6.5, 8, 10, 12, and 24 hours post-first dose. In the vehicle control group, blood was collected for plasma TK on Day 1 and Day 7 at 0.5 and 6.5 hours post-first dose.

[6] = both sexes, po, 0.5 g/kg, 0.5 g/kg/dose BID, Day 1, Mean of sexes
[7] = both sexes, po, 0.5 g/kg, 0.5 g/kg/dose BID, Day 28, Mean of sexes
[8] = both sexes, po, 1 g/kg, 1.0 g/kg/dose BID, Day 1, Mean of sexes
[9] = both sexes, po, 1 g/kg, 1.0 g/kg/dose BID, Day 28, Mean of sexes
[10] = both sexes, po, 1.5 g/kg, 1.5 g/kg/dose BID, Day 1, Mean of sexes
[11] = both sexes, po, 1.5 g/kg, 1.5 g/kg/dose BID, Day 28, Mean of sexes
[12] = female, po, 0.5 g/kg, 0.5 g/kg/dose BID, Day 1, Female
[13] = female, po, 0.5 g/kg, 0.5 g/kg/dose BID, Day 28, Female
[14] = female, po, 1 g/kg, 1.0 g/kg/dose BID, Day 1, Female
[15] = female, po, 1 g/kg, 1.0 g/kg/dose BID, Day 28, Female
[16] = female, po, 1.5 g/kg, 1.5 g/kg/dose BID (3.0 g/kg/day, NOAEL), Day 28, Female
[17] = female, po, 1.5 g/kg, 1.5 g/kg/dose BID, Day 1, Female
[18] = male, po, 0.5 g/kg, 0.5 g/kg/dose BID, Day 1, Male
[19] = male, po, 0.5 g/kg, 0.5 g/kg/dose BID, Day 28, Male
[20] = male, po, 1 g/kg, 1.0 g/kg/dose BID, Day 1, Male
[21] = male, po, 1 g/kg, 1.0 g/kg/dose BID, Day 28, Male
[22] = male, po, 1.5 g/kg, 1.5 g/kg/dose BID (3.0 g/kg/day, NOAEL), Day 28, Male
[23] = male, po, 1.5 g/kg, 1.5 g/kg/dose BID, Day 1, Male
[24] = female, 0.5 g/kg, 0.5 g/kg/dose BID, Day 1, F
[25] = female, 0.5 g/kg, 0.5 g/kg/dose BID, Day 7, F
[26] = female, 1 g/kg, 1.0 g/kg/dose BID, Day 1, F
[27] = female, 1 g/kg, 1.0 g/kg/dose BID, Day 7, F
[28] = female, 1.5 g/kg, 1.5 g/kg/dose BID, Day 1, F
[29] = female, 1.5 g/kg, 1.5 g/kg/dose BID, Day 7, F
[30] = male, 0.5 g/kg, 0.5 g/kg/dose BID, Day 1, M
[31] = male, 0.5 g/kg, 0.5 g/kg/dose BID, Day 7, M
[32] = male, 1 g/kg, 1.0 g/kg/dose BID, Day 1, M
[33] = male, 1 g/kg, 1.0 g/kg/dose BID, Day 7, M
[34] = male, 1.5 g/kg, 1.5 g/kg/dose BID, Day 1, M
[35] = male, 1.5 g/kg, 1.5 g/kg/dose BID, Day 7, M

OC[C@@H](O)[C@@H](O)[C@@H](O)CO [ribitol, (2R,3s,4S)-Pentane-1,2,3,4,5-pentol]
drug accumulation ([1]; after 28 days repeated oral administration, any dose level): no apparent ribitol drug accumulation | Tmax ([1]; both sexes, oral, post first dose and post second dose, Day 1 or Day 28): 0.5 h | Cmax [1, 6]: 141 µg/mL | AUC(0-t) [1, 6]: 337 µg·h/mL | Cmax [1, 7]: 140 µg/mL | AUC(0-t) [1, 7]: 422 µg·h/mL | Cmax [1, 8]: 257 µg/mL | AUC(0-t) [1, 8]: 540 µg·h/mL | Cmax [1, 9]: 245 µg/mL | AUC(0-t) [1, 9]: 806 µg·h/mL | Cmax [1, 10]: 384 µg/mL | AUC(0-t) [1, 10]: 1020 µg·h/mL | Cmax [1, 11]: 336 µg/mL | AUC(0-t) [1, 11]: 1090 µg·h/mL | Cmax [1, 12]: 157 µg/mL | Tmax [1, 12]: 8.5 h | AUC(0-t) [1, 12]: 322 µg·h/mL | Cmax [1, 13]: 141 µg/mL | Tmax [1, 13]: 8.5 h | AUC(0-t) [1, 13]: 393 µg·h/mL | Cmax [1, 14]: 227 µg/mL | Tmax [1, 14]: 8.5 h | AUC(0-t) [1, 14]: 520 µg·h/mL | Cmax [1, 15]: 252 µg/mL | Tmax [1, 15]: 0.5 h | AUC(0-t) [1, 15]: 794 µg·h/mL | Cmax [1, 16]: 294 µg/mL | AUC(0-t) [1, 16]: 839 µg·h/mL | Cmax [1, 17]: 334 µg/mL | Tmax [1, 17]: 8.5 h | AUC(0-t) [1, 17]: 1070 µg·h/mL | Tmax ([1]; female, po, 1.5 g/kg, 1.5 g/kg/dose BID, Day 28, Female): 8.5 h | Cmax [1, 18]: 124 µg/mL | Tmax [1, 18]: 0.5 h | AUC(0-t) [1, 18]: 351 µg·h/mL | Cmax [1, 19]: 138 µg/mL | Tmax [1, 19]: 0.5 h | AUC(0-t) [1, 19]: 450 µg·h/mL | Cmax [1, 20]: 286 µg/mL | Tmax [1, 20]: 8.5 h | AUC(0-t) [1, 20]: 559 µg·h/mL | Cmax [1, 21]: 238 µg/mL | Tmax [1, 21]: 8.5 h | AUC(0-t) [1, 21]: 818 µg·h/mL | Cmax [1, 22]: 377 µg/mL | AUC(0-t) [1, 22]: 1340 µg·h/mL | Cmax [1, 23]: 433 µg/mL | Tmax [1, 23]: 8.5 h | AUC(0-t) [1, 23]: 972 µg·h/mL | Tmax ([1]; male, po, 1.5 g/kg, 1.5 g/kg/dose BID, Day 28, Male): 8.5 h | % Binding ([2]; 75 μg/mL (0.49 mM), CD-1 mouse plasma): 44.6 ± 1.3% | % Binding ([2]; 75 μg/mL (0.49 mM), Gottingen minipig plasma): 44.1 ± 1.0% | % Binding ([2]; 75 μg/mL (0.49 mM), Sprague-Dawley rat plasma): 43.3 ± 3.4% | % Binding ([2]; 75 μg/mL (0.49 mM), human plasma): 36.5 ± 1.8% | % Binding ([2]; 200 μg/mL (1.31 mM), CD-1 mouse plasma): 42.5 ± 0.3% | % Binding ([2]; 200 μg/mL (1.31 mM), Gottingen minipig plasma): 38.6 ± 2.4% | % Binding ([2]; 200 μg/mL (1.31 mM), Sprague-Dawley rat plasma): 40.3 ± 0.5% | % Binding ([2]; 200 μg/mL (1.31 mM), human plasma): 34.6 ± 0.3% | fraction unbound ([2]; human plasma, 0.49 and 1.31 mM, range): 0.635 to 0.654 | inhibition at 0.03 mM (hERG): 3.09% | inhibition at 0.3 mM (hERG): 6.43% | inhibition at 3 mM (hERG): 7.82% | adverse findings ([3]; 6 months, ≥2 g/kg/day): intestinal bloating and soft stool were observed | time for response to subside after termination of treatment ([3]; intestinal bloating and soft stool): 48 h | AUC(0-inf) ([4]; Bama, minipig, plasma, IV 10 mg/kg, female): 17000 ng·h/mL | half-life ([4]; Bama, minipig, plasma, IV 10 mg/kg, female, read-out: T1/2 (converted)): 33.4 min | Vd ([4]; Bama, minipig, plasma, IV 10 mg/kg, female, read-out: Vss): 0.417 L/kg | AUC(0-inf) ([4]; Bama, minipig, plasma, IV 10 mg/kg, male): 11200 ng·h/mL | half-life ([4]; Bama, minipig, plasma, IV 10 mg/kg, male, read-out: T1/2 (converted)): 32.7 min | Vd ([4]; Bama, minipig, plasma, IV 10 mg/kg, male, read-out: Vss): 0.603 L/kg | AUC(0-inf) ([4]; Bama, minipig, plasma, IV 30 mg/kg, female): 57000 ng·h/mL | half-life ([4]; Bama, minipig, plasma, IV 30 mg/kg, female, read-out: T1/2 (converted)): 44.9 min | Vd ([4]; Bama, minipig, plasma, IV 30 mg/kg, female, read-out: Vss): 0.582 L/kg | AUC(0-inf) ([4]; Bama, minipig, plasma, IV 30 mg/kg, male): 35800 ng·h/mL | half-life ([4]; Bama, minipig, plasma, IV 30 mg/kg, male, read-out: T1/2 (converted)): 31.1 min | Vd ([4]; Bama, minipig, plasma, IV 30 mg/kg, male, read-out: Vss): 0.5 L/kg | AUC(0-inf) ([4]; Bama, minipig, plasma, IV 100 mg/kg, female): 210000 ng·h/mL | half-life ([4]; Bama, minipig, plasma, IV 100 mg/kg, female, read-out: T1/2 (converted)): 59.6 min | Vd ([4]; Bama, minipig, plasma, IV 100 mg/kg, female, read-out: Vss): 0.434 L/kg | AUC(0-inf) ([4]; Bama, minipig, plasma, IV 100 mg/kg, male): 150000 ng·h/mL | half-life ([4]; Bama, minipig, plasma, IV 100 mg/kg, male, read-out: T1/2 (converted)): 46.4 min | Vd ([4]; Bama, minipig, plasma, IV 100 mg/kg, male, read-out: Vss): 0.449 L/kg | CLs ([4]; IV 10 mg/kg, female): 10.1 mL/min/kg | CLs ([4]; IV 10 mg/kg, male): 15.1 mL/min/kg | half-life ([4]; both sexes, Bama, plasma, iv, minipig, range, read-out: T1/2 following the IV dose): 31.1 to 59.6 min | clearance ([4]; both sexes, Bama, plasma, minipig, IV 10-100 mg/kg, range, read-out: Systemic clearance (CLs)): 7.95 to 15.1 mL/min/kg | Vd ([4]; both sexes, Bama, plasma, minipig, IV, range, read-out: Volume of distribution at steady state (Vss)): 0.417 to 0.603 L/kg | drug accumulation ([5]; Day 7 vs Day 1, any dose level): no apparent drug accumulation | time of maximum plasma concentrations ([5]; after the first dose, Days 1 and 7 (exception females 0.5 g/kg BID Day 1)): 6.5 h | Cmax [5, 24]: 141 µg/mL | Tmax [5, 24]: 0.5 h | AUC(0-t) [5, 24]: 298 µg·h/mL | Cmax [5, 25]: 100 µg/mL | Tmax [5, 25]: 6.5 h | AUC(0-t) [5, 25]: 218 µg·h/mL | Cmax [5, 26]: 282 µg/mL | Tmax [5, 26]: 6.5 h | AUC(0-t) [5, 26]: 427 µg·h/mL | Cmax [5, 27]: 210 µg/mL | Tmax [5, 27]: 6.5 h | AUC(0-t) [5, 27]: 319 µg·h/mL | Cmax [5, 28]: 339 µg/mL | Tmax [5, 28]: 6.5 h | AUC(0-t) [5, 28]: 504 µg·h/mL | Cmax [5, 29]: 266 µg/mL | Tmax [5, 29]: 6.5 h | AUC(0-t) [5, 29]: 602 µg·h/mL | Cmax [5, 30]: 121 µg/mL | Tmax [5, 30]: 6.5 h | AUC(0-t) [5, 30]: 246 µg·h/mL | Cmax [5, 31]: 118 µg/mL | Tmax [5, 31]: 6.5 h | AUC(0-t) [5, 31]: 170 µg·h/mL | Cmax [5, 32]: 265 µg/mL | Tmax [5, 32]: 6.5 h | AUC(0-t) [5, 32]: 414 µg·h/mL | Cmax [5, 33]: 237 µg/mL | Tmax [5, 33]: 6.5 h | AUC(0-t) [5, 33]: 345 µg·h/mL | Cmax [5, 34]: 316 µg/mL | Tmax [5, 34]: 6.5 h | AUC(0-t) [5, 34]: 595 µg·h/mL | Cmax [5, 35]: 305 µg/mL | Tmax [5, 35]: 6.5 h | AUC(0-t) [5, 35]: 562 µg·h/mL
